In data set [1] the test system is M. smeg (mc2155). Kind of data set: MIC by 96-well microplate twofold dilution, M. smeg. As to conditions: for MIC: M. smeg mc2155, minimal media, 3-4 day; for fold differences between MICs for M. smeg and M. tb: M. smeg vs M. tb. The class given is cell-based.
Data set [2] relates to M. tb (CDC1551). Kind of data set: MIC by 96-well microplate twofold dilution, M. tb CDC1551. The class given is cell-based, Mycobacterium tuberculosis. As to conditions: minimal media, 5-7 weeks.
Data set [3] concerns M. tb (H37Rv). The data set is described as follows: MIC by 96-well microplate twofold dilution, M. tb H37Rv. It counts as cell-based, Mycobacterium tuberculosis. As to conditions: minimal media, 5-7 weeks.
For data set [4], the system named is RAW 264.7 macrophages. As to conditions: cited from earlier work.
Data set [5] has as its system M. smeg (mc2155). As to conditions: M. tb vs M. smeg; cited from earlier work.
The nature of data set [6]: 1D 1H NMR aqueous stability and concentration dependent micelle formation. It counts as physicochemical. As to conditions: 100 μM, 500 μM, 750 μM, and 1000 μM; FIG. 2. The method, then: One-dimensional (1D)^1H-NMR spectroscopy was used to verify the chemical purity, aqueous stability, and concentration dependent micelle formation of eleven fatty acid analogs. Each compound was dissolved in deuterated dimethyl sulfoxide (DMSO-d6) to obtain a stock concentration of 20 mM. Four different concentrations were prepared from the stock solutions for NMR analysis: 1.00 mM, 750 μM, 500 μM, 100 μM. All NMR samples consisted of 600 μL of a deuterated 50 mM potassium phosphate buffer at pH 7.2 with 50 μM of 3 (trimethylsilyl) propionic-2,2,3,3-d4 acid sodium salt (TMSP). Each 600 μL NMR sample contains 30 μL (5%) of DMSO-d6 and was transferred to a 5 mm NMR tube for analysis.
A Bruker Avance DRX 500-MHz spectrometer equipped with a 5 mm triple-resonance cryoprobe (^1H, ^13C, ^15N) with a z-axis gradient was utilized for all 1D ^1H NMR experiments. Acquisition of NMR spectra was automated using a BACS-120 sample changer and Icon NMR software. All spectra were acquired at 298.15 K with 16 dummy scans, 64 scans, 32K data points, a spectral width of 5482.46 Hz, and a relaxation delay of 1.5 s. The NMR spectra were processed and analyzed using ACD/1D NMR Manager (Advanced Chemistry Development). The resulting 1D ^1H NMR spectra were visually inspected for evidence of micelle formation (peak broadening), or chemical instability/impurities (additional peaks). […]

The mark [7] stands for this setting: highest concentration tested 1024 μg/ml.
Setting [8] is: highest concentration tested 256 μg/ml.
[9] abbreviates: highest concentration tested 1024 μg/ml, read-out: MIC.
[10] abbreviates: Mycobacterium tuberculosis, highest concentration tested 256 μg/ml, read-out: MIC.
Setting [11] is: Mycobacterium tuberculosis, H37RV, highest concentration tested 256 μg/ml, read-out: MIC.

Where two headings read alike, the source gives them in different places. Some results are limits rather than exact numbers.

One may read the MIC as the lowest concentration found to suppress growth.

On to `O=C(O)CCCCCCCC1CC(=O)C1` [Compound 10, 3-(Octanoic acid, 8-yl)cyclobutanone], for which the MIC in data set [1] (setting [7]) was 128 µg/mL; in data set [1] (read-out: MIC), 603 µM; in data set [2] (setting [8]), 128 µg/mL; in data set [2] (read-out: MIC), 603 µM; in data set [3], 1,206 μM; in data set [3] (setting [8]) it was 256 µg/mL.

Regarding `CCCCCCCCC1=C(CCCCCCCC(=O)O)CC1` [Compound 6, 1-(Octanoic acid, 8-yl)-2-octylcyclobutene], the MIC in data set [1] (setting [7]) came to 256 µg/mL; in data set [1] (read-out: MIC) it was 830 µM; in data set [2] (setting [8]), 128 µg/mL; in data set [2] (read-out: MIC), 415 µM; in data set [3] (setting [8]), 16 µg/mL; in data set [3] (read-out: MIC), 52 µM. In addition, the “fold differences between MICs for M. smeg and M. tb” value (shortened to “fold differences between MICs”) in data set [1] is given as “five to ten”.

As to `O=C(O)CCCCCCCC1CC(O)C1` (stereo not shown) [Compound 11, 3-(Octanoic acid)cyclobutanol], the MIC was approximately 313 µM in data set [1]; 64 µg/mL in data set [1] (setting [7]); 302 µM in data set [1] (read-out: MIC); 64 µg/mL in data set [2] (setting [8]); 299 µM in data set [2] (read-out: MIC); 128 µg/mL in data set [3] (setting [8]). Besides, in data set [3] (read-out: MIC), the MIC turned out to be 597 µM.

For `CCCCCCCCCC(=O)O` [Decanoic acid (DA), Decanoic acid, reference compound], the MIC turned out to be 128 µg/mL in data set [1] (setting [9]); 752 µM in data set [1] (read-out: MIC); 32 µg/mL in data set [2] (setting [10]); 188 µM in data set [2] (Mycobacterium tuberculosis, read-out: MIC); 32 µg/mL in data set [3] (setting [11]); 188 µM in data set [3] (Mycobacterium tuberculosis, H37RV, read-out: MIC).

With `N[C@@H]1CONC1=O` [DCS, D-cycloserine, reference compound], the minimal inhibitory concentration (MIC) in data set [1] (setting [7]) was found to be 75 µg/mL; in data set [1] (read-out: MIC), 313 µM; in data set [2] (setting [8]), 12.5 µg/mL; in data set [2] (read-out: MIC) it was 122 µM; in data set [3] (setting [8]), 12.5 µg/mL; in data set [3] (read-out: MIC), 122 µM.

As for “2-(Octanoic acid, 8-yl) 3-octylcyclobutanone and 3-(octanoic acid, 8-yl) 2-octylcyclobutanone [Compound 3]”, the minimum inhibitory concentration (MIC) in data set [1] was approximately 313 µM; in data set [1] (setting [7]) it was 64 µg/mL; in data set [1] (read-out: MIC) it was 197 µM; in data set [2] (setting [8]), 64 µg/mL; in data set [2] (read-out: MIC), 197 µM; in data set [3] (setting [8]) it was 32 µg/mL. Moreover, in data set [3] (read-out: MIC), the MIC was determined as 99 µM.

As to `CCCCCCCC/C=C\CCCCCCCC(=O)O` [oleate, oleic acid], in data set [4], the “concentrations displaying some toxicity to this cell line” value was not below 200 µM.

For `NNC(=O)c1ccncc1` [Isoniazid], the “fold more potent inhibition of M. tb compared with M. smeg” value in data set [5] is 100 fold.

“2-(Octanoic acid, 8-yl) 3-octylcyclobutanol and 3-(Octanoic acid, 8-yl) 2-octylcyclobutanol [Compound 4]”: the minimal inhibitory concentration (MIC) amounted to 256 µg/mL in data set [1] (setting [7]), 784 µM in data set [1] (read-out: MIC), 8 µg/mL in data set [2] (setting [8]) and 2 µg/mL in data set [3] (setting [8]). In data set [1], the “fold differences between MICs” value was “five to ten”.

On to `CCCCCCCC[C@H]1CC[C@H]1CCCCCCCC(=O)O` (relative stereo) [Compound 2, cis-9,10-Ethanooctadecanoic acid], for which the minimal inhibitory concentration (MIC) was approximately 313 µM in data set [1]; 64 µg/mL in data set [1] (setting [7]); 206 µM in data set [1] (read-out: MIC); 8 µg/mL in data set [2] (setting [8]); 16 µg/mL in data set [3] (setting [8]); 52 µM in data set [3] (read-out: MIC). For the same molecule, the “fold differences between MICs” value in data set [1] is given as “five to ten”.

On to `O=C(O)CCCCCCCC1CCC1` [Compound 9, 8-Cyclobutyloctanoic acid], for which the MIC amounted to 128 µg/mL in data set [1] (setting [9]), 645 µM in data set [1] (read-out: MIC), 4 µg/mL in data set [2] (setting [10]) and 4 µg/mL in data set [3] (setting [11]). In addition, in data set [1], the “fold differences between MICs” value was “five to ten”.

As to “2-Chloro-4-(octanoic acid, 8-yl) 3-octylcyclobutanone-; 2-Chloro-3-(octanoic acid, 8-yl) 4-octylcyclobutanone [Compound 5]”, the MIC in data set [1] (setting [7]) amounted to 256 µg/mL; in data set [1] (read-out: MIC), 713 µM; in data set [2] (setting [8]) it was 256 µg/mL; in data set [2] (read-out: MIC), 713 µM; in data set [3] (setting [8]) it was 16 µg/mL; in data set [3] (read-out: MIC), 45 µM.

As to `O=C(O)CCCCCCCC1C=CC1` (stereo not shown) [Compound 8, 8-(2-Cyclobuten-1-yl)-octanoic acid], the MIC in data set [1] (setting [9]) is 64 µg/mL; in data set [1] (read-out: MIC) it was 326 µM; in data set [2] (setting [10]), 4 µg/mL; in data set [3] (setting [11]) it was 4 µg/mL. For the same molecule, the “fold differences between MICs” value in data set [1] is recorded as “five to ten”. For the same molecule, the “micelle formation (peak broadening relative to TMSP)” value in data set [6] is “No micelle formation”.

The record behind these values is patent US10538475B2, “Amphiphilic cyclobutenes and cylobutanes” (priority 2012, dated 2020).
